Columns and labels:
[1] = target: Sigma non-opioid intracellular receptor 1 (Homo sapiens, UniProt Q99720); assay: DRUGMATRIX: Sigma1 radioligand binding (ligand: [3H] Haloperidol); type: cell membranes, Jurkat, Membrane; conditions: jurkat; Not Active = under 50% inhibition at 10 µM
[2] = DRUGMATRIX: Purinergic P2X radioligand binding (ligand: [3H] alpha, beta-Methylene-ATP); type: cell membranes, Oryctolagus cuniculus, New Zealand albino, Urinary bladder, Membrane; conditions: Not Active = under 50% inhibition at 10 µM
[3] = target: Sodium-dependent dopamine transporter (Homo sapiens, UniProt Q01959); assay: DRUGMATRIX: Dopamine Transporter radioligand binding (ligand: [125I] RTI-55); type: cell membranes, CHO-K1, Membrane; conditions: cho-k1; Not Active = under 50% inhibition at 10 µM
Adenosine receptor A2a = Adenosine receptor A2a (Homo sapiens, UniProt P29274); assay: DRUGMATRIX: Adenosine A2A radioligand binding (ligand: […]); type: cell membranes, HEK293, Membrane; conditions: hek293; Not Active = under 50% inhibition at 10 µM
Cytochrome P450 2C9 = Cytochrome P450 2C9 (Homo sapiens, UniProt P11712); conditions: bti-tn-5b1-4; further: in other assays of this panel Not Active means under 50% inhibition at 10 µM
Calcitonin receptor = target: T1, Calcitonin receptor (Homo sapiens, UniProt P30988); type: cell membranes, Membrane; conditions: t47d; further: in other assays of this panel Not Active means under 50% inhibition at 10 µM
T1 sequence (P30988 whole entry): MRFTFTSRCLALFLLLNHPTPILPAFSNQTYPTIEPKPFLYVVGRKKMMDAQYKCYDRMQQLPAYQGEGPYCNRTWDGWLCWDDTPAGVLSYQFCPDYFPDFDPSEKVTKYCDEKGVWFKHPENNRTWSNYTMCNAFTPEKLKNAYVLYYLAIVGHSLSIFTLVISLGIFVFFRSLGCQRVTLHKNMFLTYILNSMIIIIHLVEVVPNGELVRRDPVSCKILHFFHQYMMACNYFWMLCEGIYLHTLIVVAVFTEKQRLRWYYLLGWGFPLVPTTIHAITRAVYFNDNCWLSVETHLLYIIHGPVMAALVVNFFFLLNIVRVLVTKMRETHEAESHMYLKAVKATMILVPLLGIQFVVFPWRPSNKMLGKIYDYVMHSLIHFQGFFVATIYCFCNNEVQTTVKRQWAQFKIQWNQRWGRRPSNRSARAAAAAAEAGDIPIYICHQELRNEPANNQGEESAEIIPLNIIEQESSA

Nitric oxide synthase 1 = Nitric oxide synthase 1 (Rattus norvegicus, UniProt P29476); type: tissue-based, Cerebellum; further: in other assays of this panel Not Active means under 50% inhibition at 10 µM
[4] = DRUGMATRIX: Platelet-Derived Growth Factor (PDGF) radioligand binding (ligand: [125I] PDGF); type: cell-based; conditions: nih3t3; Not Active = under 50% inhibition at 10 µM

Cytochrome P450 2C9, sequence (P11712 whole entry): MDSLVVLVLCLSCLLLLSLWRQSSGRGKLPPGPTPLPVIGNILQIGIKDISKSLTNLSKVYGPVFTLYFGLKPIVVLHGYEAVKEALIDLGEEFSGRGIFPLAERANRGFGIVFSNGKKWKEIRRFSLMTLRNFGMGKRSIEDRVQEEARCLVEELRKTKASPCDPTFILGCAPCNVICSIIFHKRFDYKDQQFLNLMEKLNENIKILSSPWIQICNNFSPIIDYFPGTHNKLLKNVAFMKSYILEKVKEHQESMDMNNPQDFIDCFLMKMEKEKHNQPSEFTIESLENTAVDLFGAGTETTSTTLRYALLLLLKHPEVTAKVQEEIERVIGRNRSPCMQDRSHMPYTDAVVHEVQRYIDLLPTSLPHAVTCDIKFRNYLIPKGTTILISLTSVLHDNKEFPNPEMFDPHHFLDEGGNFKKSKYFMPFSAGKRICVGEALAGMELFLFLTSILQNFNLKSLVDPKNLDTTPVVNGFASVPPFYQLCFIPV
Sigma non-opioid intracellular receptor 1, sequence (Q99720 whole entry): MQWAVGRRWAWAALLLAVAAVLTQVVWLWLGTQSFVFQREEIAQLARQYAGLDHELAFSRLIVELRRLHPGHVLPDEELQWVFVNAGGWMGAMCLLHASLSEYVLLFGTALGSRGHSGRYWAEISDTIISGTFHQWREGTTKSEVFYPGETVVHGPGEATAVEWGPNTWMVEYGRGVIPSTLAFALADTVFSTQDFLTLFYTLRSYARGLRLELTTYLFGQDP
Sodium-dependent dopamine transporter, sequence (Q01959 whole entry): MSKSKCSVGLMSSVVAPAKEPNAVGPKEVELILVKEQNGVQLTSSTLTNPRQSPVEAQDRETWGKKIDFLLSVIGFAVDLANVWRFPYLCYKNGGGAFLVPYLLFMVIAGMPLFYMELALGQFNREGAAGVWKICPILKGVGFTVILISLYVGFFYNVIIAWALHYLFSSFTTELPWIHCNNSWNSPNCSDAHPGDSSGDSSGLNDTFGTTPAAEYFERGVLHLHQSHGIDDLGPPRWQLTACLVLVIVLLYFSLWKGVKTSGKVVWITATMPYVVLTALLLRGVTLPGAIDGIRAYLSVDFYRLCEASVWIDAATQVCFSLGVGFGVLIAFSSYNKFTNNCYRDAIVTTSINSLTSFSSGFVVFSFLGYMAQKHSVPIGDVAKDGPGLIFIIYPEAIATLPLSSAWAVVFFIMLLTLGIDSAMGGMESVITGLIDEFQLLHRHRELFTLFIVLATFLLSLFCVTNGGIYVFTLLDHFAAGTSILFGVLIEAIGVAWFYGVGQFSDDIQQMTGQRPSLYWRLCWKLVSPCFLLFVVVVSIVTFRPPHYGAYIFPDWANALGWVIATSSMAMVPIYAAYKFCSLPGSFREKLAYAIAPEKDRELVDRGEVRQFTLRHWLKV
Adenosine receptor A2a, sequence (P29274 whole entry): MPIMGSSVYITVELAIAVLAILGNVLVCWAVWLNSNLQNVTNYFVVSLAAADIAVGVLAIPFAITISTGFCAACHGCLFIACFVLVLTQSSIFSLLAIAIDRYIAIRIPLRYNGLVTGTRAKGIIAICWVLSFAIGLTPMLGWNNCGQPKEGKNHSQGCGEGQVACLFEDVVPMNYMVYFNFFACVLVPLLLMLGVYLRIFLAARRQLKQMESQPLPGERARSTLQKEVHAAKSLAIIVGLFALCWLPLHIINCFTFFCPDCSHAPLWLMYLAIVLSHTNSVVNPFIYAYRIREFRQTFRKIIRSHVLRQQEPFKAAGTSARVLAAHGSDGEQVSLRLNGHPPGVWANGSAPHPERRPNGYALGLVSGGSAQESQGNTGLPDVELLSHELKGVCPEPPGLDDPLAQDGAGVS
Nitric oxide synthase 1, sequence (P29476 whole entry): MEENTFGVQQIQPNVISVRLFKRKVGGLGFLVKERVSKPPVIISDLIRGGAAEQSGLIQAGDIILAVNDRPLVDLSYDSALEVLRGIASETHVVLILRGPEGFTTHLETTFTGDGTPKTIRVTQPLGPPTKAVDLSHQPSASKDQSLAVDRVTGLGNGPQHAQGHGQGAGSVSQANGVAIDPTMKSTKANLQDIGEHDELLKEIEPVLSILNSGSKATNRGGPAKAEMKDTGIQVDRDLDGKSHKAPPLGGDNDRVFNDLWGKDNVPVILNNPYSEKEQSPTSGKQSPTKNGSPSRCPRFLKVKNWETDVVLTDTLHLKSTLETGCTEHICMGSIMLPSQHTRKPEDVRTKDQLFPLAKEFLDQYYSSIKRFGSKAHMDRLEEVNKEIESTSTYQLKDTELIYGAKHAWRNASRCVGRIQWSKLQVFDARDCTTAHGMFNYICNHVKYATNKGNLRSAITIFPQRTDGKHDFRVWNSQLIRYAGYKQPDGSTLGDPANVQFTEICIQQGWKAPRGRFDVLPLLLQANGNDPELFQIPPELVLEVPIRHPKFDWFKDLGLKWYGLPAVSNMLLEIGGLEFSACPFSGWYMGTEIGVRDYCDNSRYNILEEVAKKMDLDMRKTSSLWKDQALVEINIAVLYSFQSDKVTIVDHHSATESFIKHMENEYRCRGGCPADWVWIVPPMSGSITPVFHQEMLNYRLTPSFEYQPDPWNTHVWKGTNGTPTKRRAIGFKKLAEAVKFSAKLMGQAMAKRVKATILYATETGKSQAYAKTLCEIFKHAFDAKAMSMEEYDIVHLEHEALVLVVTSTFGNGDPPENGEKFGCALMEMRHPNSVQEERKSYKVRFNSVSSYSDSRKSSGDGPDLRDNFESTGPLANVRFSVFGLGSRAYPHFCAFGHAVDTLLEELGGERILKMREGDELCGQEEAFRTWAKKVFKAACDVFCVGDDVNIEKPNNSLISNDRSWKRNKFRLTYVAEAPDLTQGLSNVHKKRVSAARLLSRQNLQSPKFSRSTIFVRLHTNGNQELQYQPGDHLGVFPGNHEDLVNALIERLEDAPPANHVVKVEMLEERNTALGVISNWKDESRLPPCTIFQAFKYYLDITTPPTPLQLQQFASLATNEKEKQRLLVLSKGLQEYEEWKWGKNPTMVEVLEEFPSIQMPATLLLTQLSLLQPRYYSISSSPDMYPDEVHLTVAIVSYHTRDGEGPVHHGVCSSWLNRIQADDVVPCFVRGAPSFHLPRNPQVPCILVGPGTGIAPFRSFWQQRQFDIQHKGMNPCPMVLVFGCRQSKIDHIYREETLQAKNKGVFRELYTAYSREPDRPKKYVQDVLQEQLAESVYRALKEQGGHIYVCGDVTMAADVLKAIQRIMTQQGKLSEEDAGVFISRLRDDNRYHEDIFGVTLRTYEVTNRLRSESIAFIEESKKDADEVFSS

C=C(C)[C@H]1Cc2c(ccc3c2O[C@@H]2COc4cc(OC)c(OC)cc4[C@@H]2C3=O)O1 [ROTENONE]
Not Active: IC50 [1] | IC50 [2] | Ki [2] | IC50 [3] | IC50 (Adenosine receptor A2a) | IC50 (Cytochrome P450 2C9) | Ki (Cytochrome P450 2C9) | IC50 (Calcitonin receptor) | IC50 (Nitric oxide synthase 1) | IC50 [4] | Ki [4]

C#CCN(C)[C@H](C)Cc1ccccc1 [SELEGILINE]
Not Active: IC50 [1] | IC50 [2] | Ki [2] | IC50 [3] | IC50 (Adenosine receptor A2a) | IC50 (Cytochrome P450 2C9) | Ki (Cytochrome P450 2C9) | IC50 (Calcitonin receptor) | IC50 (Nitric oxide synthase 1) | IC50 [4] | Ki [4]

CN[C@@H]1[C@H](O)[C@H](NC)[C@H]2O[C@@]3(O)C(=O)C[C@@H](C)O[C@H]3O[C@@H]2[C@H]1O [SPECTINOMYCIN]
Not Active: IC50 [1] | IC50 [2] | Ki [2] | IC50 [3] | IC50 (Adenosine receptor A2a) | IC50 (Cytochrome P450 2C9) | Ki (Cytochrome P450 2C9) | IC50 (Calcitonin receptor) | IC50 (Nitric oxide synthase 1) | IC50 [4] | Ki [4]

Nc1ccc(S(=O)(=O)Nc2ncccn2)cc1 [SULFADIAZINE]
Not Active: IC50 [1] | IC50 [2] | Ki [2] | IC50 [3] | IC50 (Adenosine receptor A2a) | IC50 (Cytochrome P450 2C9) | Ki (Cytochrome P450 2C9) | IC50 (Calcitonin receptor) | IC50 (Nitric oxide synthase 1) | IC50 [4] | Ki [4]

COc1ncnc(NS(=O)(=O)c2ccc(N)cc2)c1OC [SULFADOXINE]
Not Active: IC50 [1] | IC50 [2] | Ki [2] | IC50 [3] | IC50 (Adenosine receptor A2a) | IC50 (Cytochrome P450 2C9) | Ki (Cytochrome P450 2C9) | IC50 (Calcitonin receptor) | IC50 (Nitric oxide synthase 1) | IC50 [4] | Ki [4]

Nc1ccc(S(=O)(=O)Nc2nccs2)cc1 [SULFATHIAZOLE]
Not Active: IC50 [1] | IC50 [2] | Ki [2] | IC50 [3] | IC50 (Adenosine receptor A2a) | IC50 (Cytochrome P450 2C9) | Ki (Cytochrome P450 2C9) | IC50 (Calcitonin receptor) | IC50 (Nitric oxide synthase 1) | IC50 [4] | Ki [4]

CC(C)(C)NC[C@H](O)COc1nsnc1N1CCOCC1 [TIMOLOL]
Not Active: IC50 [1] | IC50 [2] | Ki [2] | IC50 [3] | IC50 (Adenosine receptor A2a) | IC50 (Cytochrome P450 2C9) | Ki (Cytochrome P450 2C9) | IC50 (Calcitonin receptor) | IC50 (Nitric oxide synthase 1) | IC50 [4] | Ki [4]

C[C@@H]1C[C@H]2[C@@H]3CCC4=CC(=O)C=C[C@]4(C)C3=CC[C@]2(C)[C@H]1C(=O)CN1CCN(c2cc(N3CCCC3)nc(N3CCCC3)n2)CC1 [TIRILAZAD]
Not Active: IC50 [1] | IC50 [2] | Ki [2] | IC50 [3] | IC50 (Adenosine receptor A2a) | IC50 (Cytochrome P450 2C9) | Ki (Cytochrome P450 2C9) | IC50 (Calcitonin receptor) | IC50 (Nitric oxide synthase 1) | IC50 [4] | Ki [4]

NC[C@H]1O[C@H](O[C@H]2[C@H](O)[C@@H](O[C@H]3O[C@H](CO)[C@@H](O)[C@H](N)[C@H]3O)[C@H](N)C[C@@H]2N)[C@H](N)C[C@@H]1O [TOBRAMYCIN]
Not Active: IC50 [1] | IC50 [2] | Ki [2] | IC50 [3] | IC50 (Adenosine receptor A2a) | IC50 (Cytochrome P450 2C9) | Ki (Cytochrome P450 2C9) | IC50 (Calcitonin receptor) | IC50 (Nitric oxide synthase 1) | IC50 [4] | Ki [4]

O=C(O)C(Cl)(Cl)Cl [TRICHLOROACETIC ACID]
Not Active: IC50 [1] | IC50 [2] | Ki [2] | IC50 [3] | IC50 (Adenosine receptor A2a) | IC50 (Cytochrome P450 2C9) | Ki (Cytochrome P450 2C9) | IC50 (Calcitonin receptor) | IC50 (Nitric oxide synthase 1) | IC50 [4] | Ki [4]

CC(=O)O[C@H]1C[C@@H]2CC[C@@H]3[C@H](CC[C@@]4(C)[C@H]3C[C@H]([N+]3(C)CCCCC3)[C@@H]4OC(C)=O)[C@@]2(C)C[C@@H]1N1CCCCC1.[Br-] [VECURONIUM BROMIDE]
Not Active: IC50 [1] | IC50 [2] | Ki [2] | IC50 [3] | IC50 (Adenosine receptor A2a) | IC50 (Cytochrome P450 2C9) | Ki (Cytochrome P450 2C9) | IC50 (Calcitonin receptor) | IC50 (Nitric oxide synthase 1) | IC50 [4] | Ki [4]

Cc1cn([C@H]2C[C@H](N=[N+]=[N-])[C@@H](CO)O2)c(=O)[nH]c1=O [ZIDOVUDINE]
Not Active: IC50 [1] | IC50 [2] | Ki [2] | IC50 [3] | IC50 (Adenosine receptor A2a) | IC50 (Cytochrome P450 2C9) | Ki (Cytochrome P450 2C9) | IC50 (Calcitonin receptor) | IC50 (Nitric oxide synthase 1) | IC50 [4] | Ki [4]

STANNOUS FLUORIDE
Not Active: IC50 [1] | Ki [1] | IC50 [2] | Ki [2] | IC50 [3] | Ki [3] | IC50 (Adenosine receptor A2a) | Ki (Adenosine receptor A2a) | IC50 (Cytochrome P450 2C9) | Ki (Cytochrome P450 2C9) | IC50 (Calcitonin receptor) | Ki (Calcitonin receptor) | IC50 (Nitric oxide synthase 1) | Ki (Nitric oxide synthase 1) | IC50 [4] | Ki [4]

THIMEROSAL
Not Active: IC50 [1] | Ki [1] | IC50 [2] | Ki [2] | IC50 [3] | Ki [3] | IC50 (Adenosine receptor A2a) | Ki (Adenosine receptor A2a) | IC50 (Cytochrome P450 2C9) | Ki (Cytochrome P450 2C9) | IC50 (Calcitonin receptor) | Ki (Calcitonin receptor) | IC50 (Nitric oxide synthase 1) | Ki (Nitric oxide synthase 1) | IC50 [4] | Ki [4]
